From US20230100559A1, “Compositions and Methods for Treatment of Disease by Manipulation of Serine Metabolism” (The Trustees of Princeton University, priority 2020, published 2023)
“Also recorded” adds a separate entry of the source.

Assays:
[1] = tested on: NADH production by serine catabolism; assay: In vivo [2,3,3-2H]serine infusion, malate labeling; conditions: WT C57BL6/J mice, SHIN2 200 mg/kg ip single injection before 2.5 h tracer infusion
Experimental: Mouse breeding and isotope tracing. Animal studies followed protocols approved by the Princeton University Institutional Animal Care and Use Committee and the Rutgers University Institutional Animal Care and Use Committee. NDUFS4+/− mice were purchased from Jackson Laboratory. The mice were on normal light cycle (7 AM-7 PM). In vivo infusion was performed on 9-week old normal C57BL/6 mice pre-catheterized on the right jugular vein, and 4-week old NDUFS4−/− or NDUFS4+/+ mice pre-catheterized on the jugular vein. Infusion was performed for 2.5 h to achieve isotopic pseudo-steady state. The mouse infusion setup included a tether and swivel system, connecting to the button pre-implanted under the back skin of mice. Mice were fasted from 9:00 am to 2 pm, and infused from 2 pm till 4:30 pm. […]
Calculation of 2H-serine contribution to malate, aspartate, and NADH: For malate and aspartate, the 2H-labeling fraction was measured directly (fractional size of 2H-peak relative to sum of all peaks, after isotope correction as above). For NADH, the 2H-labeling fraction was measured based on the active hydride labeling (x), which was determined from the labeling pattern of NAD+ and NADH by least square fitting in MATLAB of the observed experimental data (after natural isotope correction) to the below vectors (Liu et al., 2016a). […]

NDUFS4−/− mice = assay: Treatment of NDUFS4−/− mice (mitochondrial disease model); format: in vivo
Experimental: NDUFS4−/− mice were housed with normal mice and gel food was supplied to guarantee sufficient food supply. Mice were grouped as vehicle control group and SHIN2 treatment groups. SHIN2 was dissolved in 20% 2-hydroxypropyl-cyclodextrin solution, and delivered by intraperitoneal (50 μg/g mice) b.i.d. Mice weights were recorded every day. Limb clasps were recorded daily, with mice annotated as having the pathological limb clasping phenotype on the third consecutive day of clasping. 20% weight loss of the peak weight for each mouse is considered as the humane endpoint.
Mouse Model. B6.129S4-Ndufs4+/− mice were purchased from Jackson laboratories. The mice are heterozygous for a protein in mitochondrial complex 1 and have been bred to generate homozygous knockout mouse for the study of mitochondrial deficiency. These mice are a model of mitochondrial disease and knockouts are healthy until approximately 5 weeks age, but develop lethal encephalomyopathy by 7 weeks.
Treatment strategy: Mice were grouped as vehicle treatment group and KDG112 treatment group. KDG112 was dissolved in 20% hydroxypropyl cyclodextrin to a final concentration of 5 mg/ml. Mice were dosed B.I.D at 50 mg/kg ip. Mice weight and body temperature are recorded, and body condition score were given according to the chart below.

[2] = KDG112 50 mg/kg ip B.I.D, compared to vehicle

With `Cc1n[nH]c2c1C(c1cc(C#CCCCO)cc(CO)c1)(C(C)C)C(C#N)=C(N)O2` (stereo not drawn) [SHIN2] the “malate labeling from [2,3,3-2H]serine (NADH production by serine catabolism)” value [1] was “blocks NADH production by serine catabolism in vivo; also recorded: blocked most malate labeling”, the body condition score (NDUFS4−/− mice; [2]) was “lower score” and the body temperature (NDUFS4−/− mice; [2]) was “higher body temperature”. For the same molecule, the locomotor activity (NDUFS4−/− mice; [2]) was “better locomotor activity”, the “symptoms of hind limb clasp” value (NDUFS4−/− mice; [2]) was “delayed symptoms of hind limb clasp” and the pathological limb clasping (NDUFS4−/− mice; SHIN2 50 mg/kg b.i.d. from postnatal day 25±4, versus vehicle, 50 mg/kg) was “Delayed occurrence of limb clasping; also recorded: delayed pathological clasping behavior”. The survival (NDUFS4−/− mice; SHIN2 50 mg/kg b.i.d. versus vehicle, p=0.18, log-rank Test) was “not significantly altering survival”, the “time after day 49 until hind limb clasping symptoms develop” value (NDUFS4−/− mice; first pair of pups, KDG112 treated mouse) was 10 days and the “leg control and cage edge test” value (NDUFS4−/− mice; first pair of pups, day 49 (P49), treatment from P29) was “can control its leg normally as wild type, and can walk freely on the edge test”. For the same molecule, the body weight (NDUFS4−/− mice; first pair of pups, day 63) was “still maintains its weight”, the “day at which symptoms such as hind limb clasping develop” value (NDUFS4−/− mice; second pair of pups, KDG112 treated mouse) was 47 days and the behaviour (NDUFS4−/− mice; second pair of pups, day 38, treatment from P28) was “behaves normally”.
